Test system: Enterobacteriaceae strains
Assay: FCM-AST: flow cytometry fluorescence distribution (DiBAC4(3) membrane depolarization marker) of antibiotic-treated strains
Assay type: cell-based
Method: In a next step 22, liquid samples with different concentrations {C1, . . . , Cm} of the antibiotic are prepared for each of the selected strains Si, where C1=0 (no antibiotic) and m>2 is the number of non-null concentrations of antibiotic. Said concentrations are stored in the computer unit 14. […] After 2 h growth at 35° C. with shaking at 180 rpm, the resulting exponential phase bacterial culture is normalized at 0.5 McF and used to inoculate wells of a microtiterplate supplemented with antibiotics at the different concentrations {C1, . . . , Cm}. After 1 h of incubation at 35° C., a membrane depolarization fluorescent marker, for example (Bis-(1,3-Dibutylbarbituric Acid)Trimethine Oxonol), also known as “DiBAC4(3)”, is added to the wells at a final concentration of 0.5 μg/ml. An additional 15 min incubation with the marker is at 35° C. is then carried out. The concentrations {C1, . . . , Cm} are chosen such that the range [BPS, BPR] is included or equal to the range [C2, Cm] of non-null concentrations.
In the step 24, a FCM acquisition is performed for each sample by means of the flow-cytometer 12 and the corresponding FSC, SSC and fluorescence distributions stored in the computer unit 14. For each strain Si, and for each concentration Cj, a FSC distribution “FSCi,j”, a SSC distribution “SSCi,j” and a fluorescence distribution “FIi,j” are thus stored in the computer unit 14, e.g. in the form of digital vectors.
The experiment was performed as described in the following lines: • A panel of 107 Enterobacteriaceae strains (FIG. 6: Distribution of the panel of strains according to their MICs for Gentamicin) were treated with 0, 2, 4 and 8 mg/L of Gentamicin following the protocol described in FIG. 3 and analyzed by FCM.
In this experiment, we have made an evaluation of wide range of prediction models for Ceftazidime: • 128 Enterobacteriaceae strains (FIG. 9: Distribution of the panel of strains according to their MICs for Ceftazidime) were treated or not with four different concentrations of Ceftazidime (1, 2, 4 and 8 mg/L) using the FCM protocol described in FIG. 3; • FCM data were used to generate feature vectors as described above; • For each strategy (BPS, GS and GMS), 7 type of prediction models were built based on the feature vectors generated (FIG. 10: Number of predictions models generated. “FL1” means fluorescence); • The performance of all models were evaluated following cross validation as described above.

| Molecule | fluorescence distribution of treated strains (inferred from poor performance of quantile models) (128 Enterobacteriaceae strains, 1, 2, 4 and 8 mg/L Ceftazidime) | fluorescence distribution profile vs untreated sample (intermediate phenotype strains, 2 mg/L Gentamicin) | fluorescence distribution profile vs untreated sample (intermediate phenotype strains, 4 and 8 mg/L Gentamicin) | resistant strains that did not show any shift in fluorescence (profile A) (resistant strains, all concentrations tested (2, 4, 8 mg/L)) | fluorescence distribution profile vs untreated sample (susceptible phenotype strains, panel of 107 strains, 2 mg/L Gentamicin) | fluorescence distribution profile vs untreated sample (susceptible phenotype strains, panel of 107 strains, 4 and 8 mg/L Gentamicin) |
| --- | --- | --- | --- | --- | --- | --- |
| CC(C)(O/N=C(\C(=O)N[C@@H]1C(=O)N2C(C(=O)[O-])=C(C[n+]3ccccc3)CS[C@H]12)c1csc(N)n1)C(=O)O [Ceftazidime] | the majority of strains treated with Ceftazidime exhibit homogeneous distributions of fluorescence |  |  |  |  |  |
| Gentamicin |  | more strains showed no shift of fluorescence (profile A) | equal number of strains exhibited either no shift (profile A) or heterogeneous fluorescence distribution (profile B) | 36 out of 37 | equal number of strains exhibited either no shift (profile A) or heterogeneous fluorescence distributions (profile B) | the majority of strains exhibited an heterogeneous fluorescence distribution (profile B) |

Reference: patent publication US20190355440A1, “FLOW CYTOMETRY DATA […] ANTIMICROBIAL AGENT S[…]” (priority 2016, published 2019)
